Consider two compounds from patent US20260008760A1, “DIPEPTIDYL PEPTIDASE 1 INHIBITORS AND USES THEREOF” (Insmed Incorporated, priority 2024, published 2026).

One experiment deals with DPP1 in HL-60 cells (Homo sapiens, UniProt P53634). Description: DPP1 Cell IC50 assay. It is filed as cell-based. Further details: host or cells: HL-60 cells. As to conditions: 60 min pre-incubation, H-Gly-Phe-AFC substrate, average of n runs, read-out: Avg. IC50 (DPP1 Cell IC50 value ranges). Put shortly: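 Intracellular DPP1 activity read as AFC fluorescence (Ex/Em 400/505 nm) after 30 min with H-Gly-Phe-AFC (500 μM stock), following 60 min compound pre-incubation at 37° C with HL-60 cells at 5×10^5 live cells per mL in PBS. IC50 by 4-parameter fit against DMSO-only controls.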
DPP1 in HL-60 cells, sequence (P53634 25-463): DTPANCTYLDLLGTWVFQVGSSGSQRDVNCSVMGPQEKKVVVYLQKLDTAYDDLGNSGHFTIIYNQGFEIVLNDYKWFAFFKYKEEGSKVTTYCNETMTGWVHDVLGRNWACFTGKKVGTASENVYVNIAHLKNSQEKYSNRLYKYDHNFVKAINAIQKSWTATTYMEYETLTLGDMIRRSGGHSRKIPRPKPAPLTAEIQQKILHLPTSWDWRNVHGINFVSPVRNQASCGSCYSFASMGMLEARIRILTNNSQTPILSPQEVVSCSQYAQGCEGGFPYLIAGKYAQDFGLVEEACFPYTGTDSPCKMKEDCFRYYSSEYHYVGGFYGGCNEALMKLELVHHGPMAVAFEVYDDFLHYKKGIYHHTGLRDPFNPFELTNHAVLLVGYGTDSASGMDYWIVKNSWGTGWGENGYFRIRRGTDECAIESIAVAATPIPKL

The target of the next experiment is T1, active mouse DPP1 enzyme (Mus musculus, UniProt P97821).
T1 construct: Each subunit is composed of an N-terminal fragment, a heavy chain and a light chain; purchased R&D Systems
T1 sequence (P97821 25-134 limits assumed): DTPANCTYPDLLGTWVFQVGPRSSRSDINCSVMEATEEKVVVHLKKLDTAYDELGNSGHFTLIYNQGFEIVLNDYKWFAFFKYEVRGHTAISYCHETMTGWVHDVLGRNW
T1 sequence (P97821 231-393 limits assumed): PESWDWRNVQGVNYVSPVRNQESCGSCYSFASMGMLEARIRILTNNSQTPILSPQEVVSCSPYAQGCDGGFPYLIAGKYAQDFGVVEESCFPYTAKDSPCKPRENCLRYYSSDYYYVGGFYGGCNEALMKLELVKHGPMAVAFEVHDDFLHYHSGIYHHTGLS
T1 sequence (P97821 394-462 limits assumed): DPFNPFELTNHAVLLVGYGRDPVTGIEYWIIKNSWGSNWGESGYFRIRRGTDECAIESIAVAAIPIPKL
The experiment is described as follows: Mouse DPP1 Enzyme IC50 Assay. The experiment is classed as biochemical. The note with it: active mouse DPP1 enzyme, H-Gly-Arg-AMC substrate, 10 minutes pre-incubation at 37° C., pH 5.5; average of n runs; read-out: Avg. IC50 (Mouse DPP1 enzyme IC50 value ranges). The essentials: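 Recombinant active mouse DPP1 pre-incubated 10 min at 37 °C with compound in 50 mM MES pH 5.5, 50 mM NaCl, 5 mM DTT. H-Gly-Arg-AMC added to a final […], then cleavage followed for 90 min at 37 °C (fluorescence Ex/Em 350/450 nm). IC50 taken from a four-parameter logistic fit against the no-compound control.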

Regarding `CN1CCCC2(C1)C(=O)N(C)c1ccc(-c3ccc(C[C@@H](C#N)NC(=O)[C@@H]4CNCCCO4)cc3)cc12` (stereo partly drawn) [Compound 18, (2S)—N-[(1S)-1-cyano-2-(4-{1,1′-dimethyl-2-oxospiro[indole-3,3′-piperidin]-5-yl}phenyl)ethyl]-1,4-oxazepane-2-carboxamide], the half-inhibitory concentration (IC50) (in general, the point on the concentration scale where inhibition reaches its midpoint) was over 2.5 nM at DPP1 in HL-60 cells and over 20 nM at active mouse DPP1 enzyme.
For the compound `N#C[C@H](Cc1ccc(-c2cnc3c(n2)CCCC3)cc1)NC(=O)[C@@H]1CNCCCO1` [Compound A11, (2S)—N-[(1S)-1-cyano-2-[4-(5,6,7,8-tetrahydroquinoxalin-2-yl)phenyl]ethyl]-1,4-oxazepane-2-carboxamide], the concentration for half-maximal inhibition (IC50) at DPP1 in HL-60 cells was over 2.5 nM; on active mouse DPP1 enzyme, over 20 nM.
